Experiments:
[1] = tested on: DENV2; experiment: DENV viral load by qRT-PCR in WT mice; type: in vivo
Experimental: (§1) (A) WT mice were treated with vehicle or ketanserin (8 mg/kg) prior to subcutaneous footpad injection with 2×10^5 pfu of DENV or PBS. At 72 h post-infection, popliteal lymph nodes were isolated for viral quantification by qRT-PCR. […] (B-C) WT mice were infected with DENV2 (1×10^6 pfu, i.p.) and treated daily with either 8 mg/kg of ketanserin or vehicle. […] (C) At 1 day post-infection, the spleen was harvested and DENV2 was quantified by qRT-PCR.
(§2) Since a concern with inhibition of host factors would be the effect on viral replication, the levels of viremia following DENV infection were measured. WT mice were treated with either ketanserin or vehicle prior to a subcutaneous footpad injection. The draining lymph nodes were then harvested to determine if targeting 5HT2A receptors had any influence on viral load. […] Subsequently it was determined whether targeting serotonin would have an effect on viral load in systemic infection. WT mice were treated with either ketanserin or vehicle following DENV systemic infection via intraperitoneal injection. Serum was isolated at days 1 and 3 post-infection and viremia quantified. […] The second model of severe DENV infection, the IFN-α,β, γ-R^−/− (IFNR-KO) mice, were subsequently infected and treated with either ketanserin or vehicle. These mice are known to have higher levels of viremia than WT mice.

[2] = tested on: DENV2; experiment: DENV viral load by qRT-PCR in IFNR-KO mice; type: in vivo; conditions: DENV2 2×10^5 pfu i.p., ketanserin 8 mg/kg daily, 72 h post-infection
Experimental: as §1, §2

Compound: O=C(c1ccc(F)cc1)C1CCN(CCn2c(=O)[nH]c3ccccc3c2=O)CC1 [ketanserin, 3-[2-[4-(4-fluorobenzoyl)piperidin-1-yl]ethyl]-1H-quinazoline-2,4-dione]
- viral load in the spleen ([1]; DENV2 1×10^6 pfu i.p., ketanserin 8 mg/kg daily, 1 day post-infection): did not affect viral load in the spleen
- serum viremia (DENV genome copy numbers) ([1]; DENV2 1×10^6 pfu i.p., ketanserin 8 mg/kg daily, days 1 and 3 post-infection, n=5): no significant difference in serum DENV genome copy numbers at both time points
- viral load in the draining (popliteal) lymph node ([1]; ketanserin 8 mg/kg prior to subcutaneous footpad injection of 2×10^5 pfu DENV, 72 h post-infection): did not affect viral load in the draining lymph node
- viral load in serum [2]: no difference in viral load
- viral load in spleen [2]: no difference in viral load

Source: patent US20200352947A1, “USE OF SEROTONERGIC DRUGS TO TREAT VIRUS-INDUCED THROMBOCYTOPENIA” (NATIONAL UNIVERSITY OF SINGAPORE, priority 2017, published 2020)
